Laboratory results as given in patent US20260200931A1, “PYRIDINE POLYCYCLIC COMPOUND INHIBITOR, PREPARATION METHOD THEREFOR AND USE THEREOF” (SHANGHAI HANSOH BIOMEDICAL CO., LTD, priority 2022, published 2026).
Blank lines part the entries; values can stand above or below the molecule they belong to.

How the values were obtained:
[1] = target: T1, human CYP11B2 (Homo sapiens, UniProt P19099); experiment: G-402 cell enzyme experiment, human CYP11B2 (aldosterone production, HTRF); type: cell-based; settings: G-402 cells stably expressing human CYP11B2; 1 μM 11-deoxycorticosterone; 16 h; aldosterone by HTRF
T1 construct: The main elements of an expression plasmid include ORF of human CYP11B1 or human CYP11B2; expressed in transfected cells
T1 sequence (P19099 25-503): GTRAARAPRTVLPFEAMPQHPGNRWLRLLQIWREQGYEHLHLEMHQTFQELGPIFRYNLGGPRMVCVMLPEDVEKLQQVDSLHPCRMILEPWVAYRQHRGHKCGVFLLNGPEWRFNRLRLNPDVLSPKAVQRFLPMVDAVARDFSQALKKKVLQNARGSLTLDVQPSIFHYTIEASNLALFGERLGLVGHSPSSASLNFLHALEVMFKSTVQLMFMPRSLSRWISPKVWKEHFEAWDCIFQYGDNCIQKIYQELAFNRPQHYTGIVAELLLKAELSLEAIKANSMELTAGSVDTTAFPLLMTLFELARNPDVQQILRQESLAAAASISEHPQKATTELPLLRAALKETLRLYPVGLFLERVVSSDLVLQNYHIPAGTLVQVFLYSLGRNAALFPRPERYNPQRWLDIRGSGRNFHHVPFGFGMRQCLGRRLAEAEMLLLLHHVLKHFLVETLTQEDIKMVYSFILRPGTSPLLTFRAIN
From the text: (§1) G-402 cell line was used as host cells to express (by transient or stable transfection) an enzyme of the human CYP11 family. Specifically, G-402 cell lines stably expressing human CYP11B1 and human CYP11B2 were established respectively. […] Therefore, the G-402 cell line is very suitable as a host cell for the ectopic expression of an enzyme of the CYP11 family.
(§2) The G-402 cell line, originally derived from renal myoblastoma, can be obtained from ATCC (CRL-1440). The main elements of an expression plasmid include ORF of human CYP11B1 or human CYP11B2, a suitable promoter (CMV promoter), and a suitable resistance marker (neomycin). The expression plasmid was transfected into G-402 cells by standard technology, and a specific antibiotic was then given for screening. The activity of the enzyme expressed by the screened monoclonal cells was assessed by 11-deoxycorticosterone (substrate of CYP11B2) and 11-deoxycortisol (substrate of CYP11B1).
(§3) The G-402 cells expressing CYP11 plasmid, as established in the above solution, were cultured in McCoy's 5a Modified Medium (ATCC Catalog No. 30-2007) containing 10% FCS and 400 μg/ml G418 in an incubator at 37° C. and 5% CO2. A cell enzyme experiment was carried out using DMEM/F12 medium containing 2.5% charcoal-treated FBS and an appropriate concentration of a substrate (1 μM 11-deoxycorticosterone or 1 μM 11-deoxycortisol). In order to detect the activity of the enzyme in the cells, the cells were plated in a 96-well plate and incubated for 16 h. The supernatant was then transfered and analyzed for the concentration of the expected product (the product of CYP11B2: aldosterone; the product of CYP11B1: cortisol). The concentrations of these products were determined by an HTRF experiment of CisBio.
(§4) In the cell enzyme experiment, the inhibitory effect of the test compound on the generated product can reflect the inhibitory effect thereof on the enzyme. The dose-dependent inhibition of the enzyme activity by the compound was calculated by plotting the concentration of the test compound (x axis) versus the measured product level (y axis). Then, the original data was fitted to a 4-parameter sigmoidal function (Morgan-Mercer-Flodin, MMF model) by least square method: y=(AB+Cx^D)/(B+x^D) in which A is the maximum y value, B is the EC50 determined by XLFit, C is the minimum y value, and D is the slope value. The maximum value A corresponds to the amount of the product detected without an inhibitor, and C corresponds to the amount of the product detected in the G402 cells expressing an empty plasmid.
(§5) The EC50 value of the compound of the present patent was determined by the above G-402 experiment system. […]

[2] = target: T2, human CYP11B1 (Homo sapiens, UniProt P15538); experiment: G-402 cell enzyme experiment, human CYP11B1 (cortisol production, HTRF); selectivity of CYP11B2 over CYP11B1; type: cell-based; settings: G-402 cells expressing human CYP11B1 or CYP11B2; selectivity for CYP11B2 over CYP11B1
T2 construct: The main elements of an expression plasmid include ORF of human CYP11B1 or human CYP11B2; expressed in transfected cells
T2 sequence (P15538 25-503): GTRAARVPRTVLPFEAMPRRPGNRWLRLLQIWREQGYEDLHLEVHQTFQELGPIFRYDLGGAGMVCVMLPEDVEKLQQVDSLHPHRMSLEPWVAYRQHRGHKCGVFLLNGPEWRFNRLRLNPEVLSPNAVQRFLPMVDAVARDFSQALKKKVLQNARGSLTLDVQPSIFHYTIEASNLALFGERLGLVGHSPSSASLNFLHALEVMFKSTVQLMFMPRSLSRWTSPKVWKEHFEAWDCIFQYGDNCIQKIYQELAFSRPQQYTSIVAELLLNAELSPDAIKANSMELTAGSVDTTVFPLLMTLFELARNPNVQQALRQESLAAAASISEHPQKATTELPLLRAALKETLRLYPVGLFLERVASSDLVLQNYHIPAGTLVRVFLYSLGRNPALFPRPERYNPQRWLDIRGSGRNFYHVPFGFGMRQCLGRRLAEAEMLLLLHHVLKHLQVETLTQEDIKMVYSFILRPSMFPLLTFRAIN
From the text: as §1, §2, §3, §4, §5

[3] = Pharmacokinetic assay in mice; type: in vivo; settings: mouse, male Balb/c mice, plasma, table does not print the route (objective: oral administration, PO 5 mg/kg)
Protocol: Balb/c mice were used as test animals to study the pharmacokinetic behavior of the compounds of the present disclosure in mice (plasma) after oral administration.
Compounds of the present disclosure, made in house.
3 Balb/c mice per group, male; from Shanghai Bk Lab Animal Co., Ltd., with animal production license number (SCXK (Shanghai) 2013-0006 N0.311620400001794).
0.5 g of sodium carboxymethyl cellulose (CMC-Na, viscosity: 800-1200 Cps) was weighed and dissolved in 99 mL of purified water, and 1 ml of Tween 80 was added. These materials were uniformly mixed to form a clear solution.
Examples 1 and 2 were weighed and dissolved in the solution, and the mixtures were shaken well and ultrasonicated for 15 min to obtain colorless clear solutions with a concentration of 0.5 mg/mL.
Examples 1 and 2 were weighed, and 5% of DMSO was added based on the total administration volume; the mixture was vortexed and ultrasonicated for 2 min to ensure complete dissolution; then, 10% Solutol HS15 was added, and the mixture was vortexed and ultrasonicated for 2 min to achieve complete dissolution; finally, 85% PBS was added, and the mixture was vortexed and ultrasonicated for 5 min; the resulting mixture was filtered through a […] filter membrane to obtain a colorless, transparent, and clear solution with a concentration of 0.2 mg/mL.
After overnight fasting, 3 male Balb/c mice per group were administered orally (PO) at a dose of 5 mg/kg with an administration volume of 10 mL/kg.
After overnight fasting, 3 male Balb/c mice per group were administered intravenously (IV) at a dose of 1 mg/kg with an administration volume of 5 mL/kg.
0.04 mL of blood was collected from the orbit of the experimental animals before administration and at 0.25 h, 0.5 h, 1.0 h, 2.0 h, 4.0 h, 6.0 h, 8.0 h, and 24.0 h after administration and placed in an EDTA-2K test tube, and the test tube was centrifuged at 8000 rpm for 6 min at 4° C. to separate the plasma, which was stored at −80° C.; and the animals were fed 4 h after administration.
The final determination results were obtained by using LCMS/MS method.

[4] = test system: aldosterone; experiment: In vivo efficacy assay, ACTH challenge: plasma aldosterone; set-up: species or system cynomolgus monkeys; settings: for Aldosterone, 0: 0 hour after 5 μg/kg ACTH I.V. (given one hour after dosing); for Aldosterone, 0.5 h: 0.5 h after 5 μg/kg ACTH I.V.
Protocol: (§6) Male cynomolgus monkeys were gavaged (P.O.) with the compounds to be tested and divided into 0 mpk (vehicle group), 0.1 mpk, 0.3 mpk, 1 mpk, and 3 mpk dose groups. Each group was given 5 μg/kg ACTH intravenous injection (I.V.) after one hour. Blood samples were collected at −1 hour, 0 hour, 0.5 hours, 1.0 hour, 1.5 hours, 2 hours, and 3 hours after intravenous injection of ACTH. The volume was about 0.5 mL at each time point. The samples were centrifuged (3200 g, at 2-8° C. for 10 minutes) within one hour after collection. The contents of the plasma aldosterone, cortisol, corticosterone, 11-deoxycortisol, and 11-deoxycorticosterone at each time point were then analyzed by LC/MS-MS method.

[5] = test system: cortisol; experiment: In vivo efficacy assay, ACTH challenge: plasma cortisol; set-up: species or system cynomolgus monkeys; settings: for Cortisol, 0: 0 hour after 5 μg/kg ACTH I.V. (given one hour after dosing); for Cortisol, 1 h: 1 h after 5 μg/kg ACTH I.V.
Protocol: as §6

EC50 [1]: 7 nM
hsF (human selective factor: ratio of CYP11B1 EC50 to CYP11B2 EC50) [2]: 394×
Structure (SMILES): CN1C(=O)OCc2cc(-c3cncc(C4=CCN(S(=O)(=O)C5CC5)CC4)c3)ccc21 [Example 68, 6-(1′-(Cyclopropylsulfonyl)-1′,2′,3′,6′-tetrahydro-[3,4′-bipyridine]-5-yl)-1-methyl-1,4-dihydro-2H-benzo[d][1,3]oxazin-2-one]

EC50 [1]: 48 nM
Structure (SMILES): CCS(=O)(=O)N1CC(Oc2cncc(-c3ccc4c(c3)COC(=O)N4C)c2)C1 [Example 58, 6-(5-((1-(Ethylsulfonyl)azetidin-3-yl)oxy)pyridin-3-yl)-1-methyl-1,4-dihydro-2H-benzo[d][1,3]oxazin-2-one]

hsF (human selective factor: ratio of CYP11B1 EC50 to CYP11B2 EC50) [2]: >1279×
Structure (SMILES): CN1C(=O)OCc2cc(-c3cncc(N4CC5(CN(C(=O)c6cnn(C)c6)C5)C4)c3)ccc21 [Example 60, 1-Methyl-6-(5-(6-(1-methyl-1H-pyrazole-4-carbonyl)-2,6-diazaspiro[3.3]heptan-2-yl)pyridin-3-yl)-1,4-dihydro-2H-benzo[d][1,3]oxazin-2-one]

More lines, now with the values behind:

Structure (SMILES): CN1C(=O)CCc2cc(-c3cncc4c3CCC[C@H]4NC(=O)CC34CC(C3)C4)ccc21 [Example 37]
EC50 [1]: 35 nM

Structure (SMILES): CCC(=O)N[C@@H]1CCCc2c(-c3ccc4c(c3)OCC(=O)N4C)cncc21 [Example 2-A]
hsF (human selective factor: ratio of CYP11B1 EC50 to CYP11B2 EC50) [2]: 174×

Structure (SMILES): CCC(=O)N[C@@H]1CCCc2c(-c3ccc4c(c3)COC(=O)N4C)cncc21 [Example 1-A]
EC50 [1]: 70 nM
hsF (human selective factor: ratio of CYP11B1 EC50 to CYP11B2 EC50) [2]: 144×
AUC(0-inf) [3]: 20800 ng·h/mL
AUC(0-t) [3]: 20800 ng·h/mL
Cmax [3]: 3770 ng/mL
Tmax [3]: 0.3 h
half-life [3]: 2.7 h
MRT inf ([3]; read-out: MRT0-∞): 4.7 h
Aldosterone, 0 ([4]; 0.1 mpk P.O.): 0.38 ng/mL
Aldosterone, 0.5 h ([4]; 0.1 mpk P.O.): 0.33 ng/mL
Aldosterone, 0 ([4]; 0.3 mpk P.O.): 0.23 ng/mL
Aldosterone, 0.5 h ([4]; 0.3 mpk P.O.): 0.17 ng/mL
Aldosterone, 0 ([4]; 1 mpk P.O.): 0.12 ng/mL
Aldosterone, 0.5 h ([4]; 1 mpk P.O.): 0.15 ng/mL
Aldosterone, 0 ([4]; 3 mpk P.O.): 0.13 ng/mL
Aldosterone, 0.5 h ([4]; 3 mpk P.O.): 0.09 ng/mL
Cortisol, 0 ([5]; 0.1 mpk P.O.): 246 ng/mL
Cortisol, 1 h ([5]; 0.1 mpk P.O.): 360 ng/mL
Cortisol, 0 ([5]; 0.3 mpk P.O.): 230 ng/mL
Cortisol, 1 h ([5]; 0.3 mpk P.O.): 355 ng/mL
Cortisol, 0 ([5]; 1 mpk P.O.): 215 ng/mL
Cortisol, 1 h ([5]; 1 mpk P.O.): 315 ng/mL
Cortisol, 0 ([5]; 3 mpk P.O.): 225 ng/mL
Cortisol, 1 h ([5]; 3 mpk P.O.): 326 ng/mL
